Like-named read-outs stand apart in the source and are kept apart here.
Tests used:
[1] = test system: fibroblast growth factor receptor (FGFR); assay: Tyrosine phosphorylation of FGFR in intact FM55 melanoma cells; format: cell-based; conditions: 0.05 μM, 1 h
Experimental: (§1) Cells were cultured to subconfluency in 6-cm plates, and then fresh medium containing 10% FBS and the desired compounds were added for 1 h. The cells were then lyzed and subjected to immunoprecipitation using specific antibodies. Immunoprecipitates were resolved by sodium dodecyl sulphate polyacrylamide gel electrophoresis (SDS-PAGE) and transferred to nitro-cellulose membranes and incubated with anti-phosphotyrosine antibody. Antibodies to actin (in cell extract) or IGF-1R beta subunit were used as loading controls. After detection the films were scanned for quantification.
(§2) FM55 melanoma cells were cultured in the same way as described in Experiment 1. When reaching a density of 65,000 cells/cm^2 in the dishes, they were treated for 1 h with 0 (control) and 0.05 μM of picropodophyllin and podophyllotoxin, respectively. The cells were then isolated and subjected to immunoprecipitation of the IGF-1R, fibroblast growth factor receptor (FGFR), platelet-derived growth factor receptor (PDGFR), epidermal growth factor receptor (EGFR), insulin receptor (IR) and insulin substrate-1 (IRS-1) using antibodies to respective molecules. IRS-1 is a substrate of IGF-1R, and therefore its phosphorylation is dependent on phosphorylated IGF-1R. Gelelectrophoresis, Western blotting and quantification of the different signals were performed as described above.

[2] = test system: platelet-derived growth factor receptor (PDGFR); assay: Tyrosine phosphorylation of PDGFR in intact FM55 melanoma cells; format: cell-based; conditions: 0.05 μM, 1 h
Experimental: as §1, §2

[3] = biological target: T1, epidermal growth factor receptor (EGFR) (Homo sapiens, UniProt P00533); assay: Tyrosine phosphorylation of EGFR in intact FM55 melanoma cells; format: cell-based; conditions: 0.05 μM, 1 h
T1 construct: endogenous in cells; host or cells: FM55 melanoma cells
T1 sequence (P00533 25-1210): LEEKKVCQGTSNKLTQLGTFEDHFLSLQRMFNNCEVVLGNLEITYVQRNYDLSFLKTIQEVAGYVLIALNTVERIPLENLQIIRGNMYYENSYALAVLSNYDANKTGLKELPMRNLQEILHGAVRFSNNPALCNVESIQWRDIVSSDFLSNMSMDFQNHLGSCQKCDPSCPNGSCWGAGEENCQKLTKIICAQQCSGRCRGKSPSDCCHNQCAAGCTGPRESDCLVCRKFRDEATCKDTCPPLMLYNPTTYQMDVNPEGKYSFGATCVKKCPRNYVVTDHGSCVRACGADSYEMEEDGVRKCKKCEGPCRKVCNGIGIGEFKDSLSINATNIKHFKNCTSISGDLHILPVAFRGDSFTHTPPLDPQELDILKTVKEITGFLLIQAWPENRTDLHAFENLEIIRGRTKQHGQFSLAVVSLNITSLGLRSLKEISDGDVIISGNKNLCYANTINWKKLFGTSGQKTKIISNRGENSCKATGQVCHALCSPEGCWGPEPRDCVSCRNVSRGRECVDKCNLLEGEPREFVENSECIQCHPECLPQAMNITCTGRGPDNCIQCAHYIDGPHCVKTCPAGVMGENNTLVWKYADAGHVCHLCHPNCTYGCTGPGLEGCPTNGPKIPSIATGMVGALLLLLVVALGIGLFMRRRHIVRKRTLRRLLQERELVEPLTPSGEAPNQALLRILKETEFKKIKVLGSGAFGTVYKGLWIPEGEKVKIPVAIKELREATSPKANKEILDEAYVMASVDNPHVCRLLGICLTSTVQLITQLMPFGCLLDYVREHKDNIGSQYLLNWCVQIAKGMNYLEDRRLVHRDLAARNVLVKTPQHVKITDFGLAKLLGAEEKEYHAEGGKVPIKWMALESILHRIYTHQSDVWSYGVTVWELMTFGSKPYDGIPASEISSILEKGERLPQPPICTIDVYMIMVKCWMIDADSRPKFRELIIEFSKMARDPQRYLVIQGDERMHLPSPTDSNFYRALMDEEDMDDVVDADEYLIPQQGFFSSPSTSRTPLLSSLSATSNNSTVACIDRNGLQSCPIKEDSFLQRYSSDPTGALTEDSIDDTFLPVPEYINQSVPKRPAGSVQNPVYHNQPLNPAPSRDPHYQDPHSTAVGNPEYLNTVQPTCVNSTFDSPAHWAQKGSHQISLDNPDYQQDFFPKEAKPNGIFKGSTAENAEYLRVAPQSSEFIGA
Experimental: as §1, §2

[4] = test system: insulin substrate-1 (IRS-1); assay: Phosphorylation of IRS-1 in intact FM55 melanoma cells; format: cell-based; conditions: 0.05 μM, 1 h
Experimental: as §1, §2

[5] = test system: SK-MEL-28 melanoma cell line; assay: Cell viability (XTT), SK-MEL-28; format: cell-based
Experimental: (§3) Cell proliferation kit II (Roche Inc.) is based on colorimetric change of the yellow tetrazolium salt XTT in orange formazan dye by the respiratory chain of viable cells (Roehm, N W, et al., J Immunol Methods 142:257-265, 1991). Cells seeded at a concentration of 5000/well in 100 μl medium in a 96-well plate were treated with different drugs in the given concentration. After 24 or 48 h the cells were incubated, according to the manufacturer's protocol, with XTT labelling mixture. After 4 h the formazan dye is quantified using a scanning multiwell spectrophotometer with a 495-nm filter. The absorbance is directly correlated with the number of viable cells. The standard absorbance curve was drawn by means of untreated cells seeded at a concentration of from 1000 to 10 000 cells/well with an increasing rate of 1000 cells/well. All standards and experiments were performed in triplicates.
(§4) 12 different types of cell lines were seeded in 96-well plates (medium volume in a well was 100 μl), at a concentration of 10,000 cells/cm^2 in Minimal Essential Medium supplemented with fetal calf serum. When the cells had reached a concentration of 65,000 cells/cm^2, they were treated with different doses of podophyllotoxin and picropodophyllin for 48 h. Cell viability was then assayed (see above). […]

FM55 melanoma cell line = assay: Cell viability (XTT), FM55; format: cell-based; conditions: read-out: EC50 for cell viability
Experimental: as §3, §4

[6] = test system: MCF-7 breast cancer cell line; assay: Cell viability (XTT), MCF-7; format: cell-based; conditions: Homo sapiens, read-out: EC50 for cell viability
Experimental: as §3, §4

[7] = test system: PC-3 prostatic carcinoma cell line; assay: Cell viability (XTT), PC-3; format: cell-based; conditions: Homo sapiens, read-out: EC50 for cell viability
Experimental: as §3, §4

[8] = test system: RD-ES Ewing's sarcoma cell line; assay: Cell viability (XTT), RD-ES; format: cell-based; conditions: Homo sapiens, 48 h, read-out: EC50 for cell viability
Experimental: as §3, §4

[9] = test system: R- cells (IGF-1R negative fibroblasts); assay: Cell viability (XTT), R-; format: cell-based, murine; conditions: Mus musculus, Fibroblast, 48 h, read-out: EC50 for cell viability
Experimental: as §3, §4

[10] = test system: P6 cells (fibroblasts with overexpressed IGF-1R); assay: Cell viability (XTT), P6; format: cell-based, murine; conditions: Mus musculus, Fibroblast, 48 h, read-out: EC50 for cell viability
Experimental: as §3, §4

HaCaT cells = assay: Cell viability of HaCaT cells (psoriasis model); format: cell-based; conditions: Homo sapiens, 48 h, read-out: Cell viability
Experimental: (§5) Keratinocytes (HaCaT cells) were provided by and tested in collaboration with Professor Mona Bäckdahl, Department of Dermatology, Karolinska Hospital, Stockholm, Sweden. The HaCaT cell line is a spontaneously immortalized human keratinocyte cell line (Boukamp P, et al., J Cell Biol 106: 761-771, 1988), which is frequently used as an experimental model for psoriasis (Wraight, C. J., et al. Nat Biotechnol 18: 521-526, 2000.) HaCaT cells were cultured in Dulbecco's Modified Eagle's Medium containing 10% fetal bovine serum, glutamine, benzylpenicillin and streptomycin.
as §3, with “All standards and experiments were performed in triplicates.” left out

IGF-1R = IGF-1R (Homo sapiens, UniProt P08069); assay: IGF-1R phosphorylation in HaCaT cells (psoriasis model); format: cell-based; parameters: expressed in transfected cells; host or cells: P6 cell line (murine fibroblasts overexpressing human IGF-1R); receptor captured on plates with an antibody to the beta subunit; conditions: 0.05 μM, 1 h, control 100
Chain of IGF-1R (P08069 31-1367): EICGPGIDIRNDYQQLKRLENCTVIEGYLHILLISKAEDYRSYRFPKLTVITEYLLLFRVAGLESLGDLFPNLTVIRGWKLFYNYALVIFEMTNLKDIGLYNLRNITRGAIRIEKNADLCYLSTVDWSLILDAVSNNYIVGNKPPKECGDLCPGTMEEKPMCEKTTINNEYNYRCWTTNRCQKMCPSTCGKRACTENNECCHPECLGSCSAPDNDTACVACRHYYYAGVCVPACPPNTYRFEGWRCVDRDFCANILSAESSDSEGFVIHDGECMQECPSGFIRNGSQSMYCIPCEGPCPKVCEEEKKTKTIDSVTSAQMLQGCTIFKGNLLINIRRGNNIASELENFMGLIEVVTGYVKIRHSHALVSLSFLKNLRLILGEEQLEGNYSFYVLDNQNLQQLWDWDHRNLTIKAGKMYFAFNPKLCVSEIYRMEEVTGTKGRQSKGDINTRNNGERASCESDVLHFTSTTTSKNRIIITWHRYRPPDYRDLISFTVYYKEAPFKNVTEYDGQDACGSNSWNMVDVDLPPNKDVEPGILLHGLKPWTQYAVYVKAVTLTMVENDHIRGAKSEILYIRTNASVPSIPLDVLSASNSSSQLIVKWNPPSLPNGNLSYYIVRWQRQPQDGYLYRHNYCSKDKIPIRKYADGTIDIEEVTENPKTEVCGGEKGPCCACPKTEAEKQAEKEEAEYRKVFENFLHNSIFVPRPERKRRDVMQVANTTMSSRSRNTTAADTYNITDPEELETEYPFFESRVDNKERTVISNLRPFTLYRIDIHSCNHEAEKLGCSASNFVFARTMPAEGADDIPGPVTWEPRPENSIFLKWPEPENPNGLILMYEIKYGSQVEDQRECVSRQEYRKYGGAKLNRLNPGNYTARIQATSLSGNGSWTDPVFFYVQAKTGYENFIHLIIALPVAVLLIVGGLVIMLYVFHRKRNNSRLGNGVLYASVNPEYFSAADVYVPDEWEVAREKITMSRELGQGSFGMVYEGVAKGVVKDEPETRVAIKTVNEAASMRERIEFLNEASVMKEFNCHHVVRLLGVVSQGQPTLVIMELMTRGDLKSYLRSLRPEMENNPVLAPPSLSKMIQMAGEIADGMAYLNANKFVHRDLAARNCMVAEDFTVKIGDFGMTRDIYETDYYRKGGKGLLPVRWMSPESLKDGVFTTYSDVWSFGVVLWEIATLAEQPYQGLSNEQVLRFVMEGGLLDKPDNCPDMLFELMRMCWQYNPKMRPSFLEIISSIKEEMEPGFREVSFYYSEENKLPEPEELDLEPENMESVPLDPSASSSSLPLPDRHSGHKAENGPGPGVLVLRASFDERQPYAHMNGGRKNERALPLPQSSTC
Experimental: as §5
Cells were cultured to subconfluency in 6-cm plates, and then fresh medium containing 10% FBS and the desired compounds were added for 1 h. The cells were then lyzed and subjected to immunoprecipitation using specific antibodies. […] After detection the films were scanned for quantification.
HaCaT cells, which are immortalized human keratinocytes and represent a model cell line for psoriasis, were seeded in 6-cm dishes or in 96-well plates (medium volume in a well was 100 μl), at a concentration of 7,000 cells/cm^2 in Dulbecco's Modified Eagle's Medium containing 10% fetal bovine serum. […] After 1 h incubation the cells in the 6-cm dishes were harvested for assay and quantification of IGF-1R phosphorylation as described in Experiment 1. […]

Structure (SMILES) | Level of phosphorylation in intact cells, substrate FGFR [1] [% OD] | Level of phosphorylation in intact cells, substrate PDGFR [2] [% OD] | Level of phosphorylation in intact cells, substrate EGFR [3] [% OD] | Level of phosphorylation in intact cells, substrate IRS-1 [4] [% OD] | EC50 ([5]; Homo sapiens, SK-MEL-28, 48 h; read-out: EC50 for cell viability) [nM] | EC50 (FM55 melanoma cell line; FM55, 48 h) [nM] | EC50 ([6]; MCF7, MCF-7, 48 h) [nM] | EC50 ([7]; PC-3, 48 h) [nM] | EC50 [8] [nM] | EC50 ([9]; R- (IGF-1R negative fibroblasts)) [nM] | EC50 ([10]; P6 (fibroblasts with overexpressed IGF-1R)) [nM] | viability at 0.05 µM (HaCaT cells; HaCaT cells, 0.05 μM, control 100) [%] | IGF-1R phosphorylation (IGF-1R) | EC50 ([5]; Homo sapiens, SK-MEL-28, 48 h, read-out: EC50 for cell viability) [nM] | EC50 (FM55 melanoma cell line; 48 h) [nM] | EC50 ([6]; MCF7, 48 h) [nM] | EC50 ([7]; 48 h) [nM] | EC50 [9] [nM] | EC50 [10] [nM] | viability at 0.05 µM (HaCaT cells; HaCaT) [%]
COc1cc([C@@H]2c3cc4c(cc3[C@H](O)[C@H]3COC(=O)[C@@H]23)OCO4)cc(OC)c1OC [Picropodophyllin, picropodophyllin] | 100 | 104 | 106 | 17 | 30 | 70 | 90 | 90 | 100 | > 15000 | 20 | 35 | 35 | – | – | – | – | – | – | –
COc1cc([C@@H]2c3cc4c(cc3[C@H](O)[C@H]3COC(=O)[C@H]23)OCO4)cc(OC)c1OC [Podophyllotoxin, podophyllotoxin] | 105 | 100 | 107 | 10 | – | – | – | – | 100 | – | – | – | 45 | 20 | 40 | 70 | 60 | > 15000 | 30 | 30
